According to PubChem BioAssay (NCI):
Values joined by “and” are separate entries in the source; they are usually repeats but may differ in a detail not shown here. Identical values can stand only once.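 Briefly, cells in 96-well plates were exposed to five compound concentrations for 48 h, and endpoints were estimated by linear interpolation. Abbreviation: GI50, concentration required for 50% inhibition of growth. The concentration for full growth arrest is given as TGI.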

How the values were obtained:
Experiment in all cases: NCI tumour cell line growth inhibition, 48 h
[1] = tested on: OVCAR-8 ovarian
[2] = tested on: HCT-116 colon
[3] = tested on: RXF 393 renal
[4] = tested on: CCRF-CEM leukemia
[5] = tested on: A498 renal
[6] = tested on: M19-MEL melanoma
[7] = tested on: MCF7 breast
[8] = tested on: SK-OV-3 ovarian
[9] = tested on: RPMI-8226 leukemia
[10] = tested on: EKVX NSCLC
[11] = tested on: SF-268 CNS
[12] = tested on: KM20L2 colon
[13] = tested on: SNB-19 CNS
[14] = tested on: NCI/ADR-RES ovarian
[15] = tested on: SF-295 CNS
[16] = tested on: MALME-3M melanoma
[17] = tested on: CAKI-1 renal
[18] = tested on: SK-MEL-5 melanoma
[19] = tested on: HCT-15 colon
[20] = tested on: SK-MEL-28 melanoma
[21] = tested on: HL-60(TB) leukemia
[22] = tested on: P388 leukemia
[23] = tested on: NCI-H23 lung
[24] = tested on: HOP-92 NSCLC
[25] = tested on: IGROV1 ovarian
[26] = tested on: LOX IMVI melanoma
[27] = tested on: K-562 leukemia
[28] = tested on: DLD-1 colon
[29] = tested on: SN12C renal
[30] = tested on: SW-620 colon
[31] = tested on: HOP-18 NSCLC
[32] = tested on: OVCAR-3 ovarian
[33] = tested on: SK-MEL-2 melanoma
[34] = tested on: OVCAR-4 ovarian
[35] = tested on: P388/ADR leukemia
[36] = tested on: SF-539 CNS
[37] = tested on: DMS 273 small cell lung
[38] = tested on: DMS 114 small cell lung
[39] = tested on: UACC-62 melanoma
[40] = tested on: A549 NSCLC
[41] = tested on: 786-0 renal
[42] = tested on: OVCAR-5 ovarian
[43] = tested on: SR leukemia
[44] = tested on: U251 CNS
[45] = tested on: TK-10 renal
[46] = tested on: COLO 205 colon
[47] = tested on: SN12K1 renal
[48] = tested on: HCC-2998 colon
[49] = tested on: XF 498 CNS
[50] = tested on: NCI-H460 lung
[51] = tested on: M14 melanoma
[52] = tested on: HT29 colon
[53] = tested on: ACHN renal
[54] = tested on: LXFL 529 NSCLC
[55] = tested on: SNB-75 CNS
[56] = tested on: MOLT-4 leukemia
[57] = tested on: HOP-62 NSCLC

CC1[C@@H]2CC=C3[C@H]4CCC5Cc6nc7c(nc6C[C@@]5(C)C4(O)CC(=O)[C@]32CO[C@]12OC(C)(C)CC2O)CC1CC[C@@H]2C3=C[C@H]4O[C@@]5(O[C@@](C)(CO)C[C@@H]5O)C(C)[C@@]4(O)[C@]3(C)[C@@H](O)CC2[C@]1(C)C7 (some centres undefined)
GI50 [1]: 198 nM | TGI [2]: 105 nM and 846 nM | GI50 [3]: 0.36 nM | TGI [3]: 0.371 nM and 2.17 nM | GI50 [4]: 0.126 nM and 0.441 nM | TGI [4]: 7.23 nM and 63.8 nM | GI50 [5]: 0.396 nM | TGI [5]: 4.25 nM and 4.93 nM | GI50 [6]: 329 nM and 2050 nM | TGI [6]: > 3600 nM | TGI [7]: 441 nM | GI50 [8]: 0.461 nM and 2.49 nM | GI50 [9]: < 0.36 nM | TGI [9]: 0.322 nM and < 0.36 nM | GI50 [10]: 6.15 nM and 9.96 nM | TGI [10]: 152 nM and 814 nM | GI50 [11]: 0.194 nM and 1.44 nM | TGI [11]: 309 nM and 672 nM | GI50 [12]: 0.664 nM and 2.02 nM | TGI [12]: 70.4 nM and 67.5 nM | GI50 [13]: 2.41 nM and 16.4 nM | TGI [13]: 393 nM and > 3600 nM | TGI [14]: > 3600 nM | GI50 [15]: < 0.36 nM | TGI [15]: 0.131 nM and < 0.36 nM | GI50 [16]: 2.98 nM and 3.69 nM | TGI [16]: 142 nM and 29.2 nM | GI50 [17]: 0.573 nM and 4.63 nM | TGI [17]: 365 nM and > 3600 nM | GI50 [18]: 0.717 nM and 6.38 nM | GI50 [19]: 2.34 nM and 12.7 nM | TGI [19]: 73.7 nM and 589 nM | GI50 [20]: 0.236 nM | TGI [20]: 2.01 nM | GI50 [21]: 0.36 nM | TGI [22]: 3.82 nM | GI50 [23]: 0.71 nM and 2.24 nM | TGI [23]: 143 nM and 377 nM | GI50 [24]: 0.104 nM and 0.36 nM | GI50 [25]: 2.58 nM and 4.9 nM | TGI [25]: > 3600 nM | GI50 [26]: 0.15 nM and 1.14 nM | GI50 [27]: 0.149 nM and 1.12 nM | TGI [27]: 21 nM and 59.5 nM | GI50 [28]: 71.2 nM and 86.6 nM | TGI [28]: 874 nM and > 3600 nM | TGI [29]: > 3600 nM | GI50 [30]: 0.172 nM and 1.19 nM | TGI [31]: > 3600 nM | TGI [32]: > 3600 nM | GI50 [33]: 0.29 nM and 1.17 nM | TGI [33]: 16.4 nM and 29.4 nM | TGI [34]: > 3600 nM | TGI [35]: 379 nM | GI50 [36]: 0.36 nM | GI50 [37]: 0.36 nM | GI50 [38]: 0.367 nM | GI50 [39]: 0.142 nM and 0.422 nM | GI50 [40]: 0.294 nM and 1.21 nM | TGI [40]: 223 nM and 1120 nM | GI50 [41]: 0.142 nM | TGI [41]: 44.6 nM | GI50 [42]: 14.2 nM and 7.34 nM | TGI [42]: 426 nM and 118 nM | GI50 [43]: 0.155 nM | TGI [43]: 82.1 nM | GI50 [44]: 0.112 nM and 0.36 nM | TGI [44]: 74.5 nM and 95.5 nM | TGI [45]: 307 nM | TGI [46]: 6.58 nM and 64.4 nM | TGI [47]: > 3600 nM | GI50 [48]: 321 nM | TGI [48]: > 3600 nM | TGI [49]: 256 nM | GI50 [50]: 0.125 nM and 0.36 nM | TGI [50]: 15.5 nM and 140 nM | GI50 [51]: 0.135 nM | TGI [51]: 0.363 nM | GI50 [52]: 0.918 nM and 1.23 nM | TGI [52]: 48.6 nM and 62.3 nM | GI50 [53]: 2.57 nM | TGI [53]: 381 nM | GI50 [54]: 0.139 nM | TGI [54]: 0.387 nM | GI50 [55]: 0.36 nM | GI50 [56]: 0.12 nM and 0.36 nM | TGI [56]: 0.159 nM and 1.14 nM | GI50 [57]: 0.104 nM and 0.36 nM | TGI [57]: 0.831 nM and 2.57 nM
